In PubChem BioAssay (NCI):
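Grown in 96-well plates, cells were treated for 48 hours with each compound at five concentrations. Insufficient inhibition: endpoint recorded as highest concentration tested. Abbreviation: GI50, concentration required for 50% inhibition of growth. TGI: concentration producing complete growth inhibition.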

Experiments:
Experiment in all cases: NCI-60 cell line screen, 48 h
[1] = system: A498 renal
[2] = system: CAKI-1 renal
[3] = system: DU-145 prostate
[4] = system: HT29 colon
[5] = system: IGROV1 ovarian
[6] = system: MDA-MB-435
[7] = system: NCI-H460 lung
[8] = system: NCI/ADR-RES ovarian
[9] = system: SK-MEL-5 melanoma
[10] = system: HCC-2998 colon

COc1cc2c(/C=C3/C(=O)Nc4ccc(Cl)cc43)c(Cl)n(Cc3ccccc3)c2cc1C showed a TGI [1] of 5.72 µM, a TGI [2] of 10.6 µM and a TGI [3] of 16.1 µM. For the same compound, the TGI [4] was over 100 µM, the TGI [5] was 13.4 µM and the TGI [6] was 6.21 µM. It also gave a TGI [7] of over 100 µM, a TGI [8] of over 100 µM and a TGI [9] of 13.7 µM.
COc1ccc(/C=C2\OC(=O)C(Cl)=C2c2ccc(OC)cc2)cc1 gave a TGI [1] of over 100 µM, a TGI [2] of over 100 µM and a TGI [3] of over 100 µM. For the same compound, the TGI [4] was over 100 µM, the TGI [5] was over 100 µM and the TGI [6] was over 100 µM. It also gave a TGI [7] of over 100 µM and a TGI [9] of over 100 µM.
Nc1ccn(C2CC(O)C(COP(O)(=S)OC3CC(n4ccc(N)nc4=O)OC3CO)O2)c(=O)n1 (stereo not given) was tested, and the TGI [2] was over 100 µM, the TGI [3] was over 100 µM and the TGI [10] was over 100 µM. The TGI [4] was over 100 µM, the TGI [5] was over 100 µM and the TGI [6] was over 100 µM. It also gave a TGI [7] of over 100 µM, a TGI [8] of over 100 µM and a TGI [9] of over 100 µM.
Compound CCOC(=O)/C(N=Nc1ccc(-n2c(C)nc3ccccc3c2=O)cc1)=C(/C)O has a TGI [1] of over 100 µM, a TGI [2] of over 100 µM and a TGI [3] of over 100 µM. For the same compound, the TGI [4] was over 100 µM, the TGI [5] was over 100 µM and the TGI [6] was 59.8 µM. For the same compound, the TGI [7] was over 100 µM, the TGI [8] was 51.8 µM and the TGI [9] was 16 µM.
COC(=O)[C@H](Cc1ccccc1)NC(=O)NCCN(CCNC(=O)N[C@@H](Cc1ccccc1)C(=O)OC)C(=O)N[C@@H](Cc1ccccc1)C(=O)OC was tested, and the TGI [1] was over 82.7 µM, the TGI [2] was over 63.6 µM and the TGI [3] was 41.6 µM. It also gave a TGI [10] of 34.8 µM, a TGI [6] of 45 µM and a TGI [7] of 34.8 µM. The TGI [8] was over 100 µM and the TGI [9] was 37.4 µM.
CC1C2CC(CC(=O)N2)C1(C)C (stereo not given) gave a TGI [1] of over 100 µM, a TGI [2] of over 100 µM and a TGI [3] of over 100 µM. The TGI [10] was over 100 µM, the TGI [4] was over 100 µM and the TGI [5] was over 100 µM. The TGI [6] was over 100 µM, the TGI [7] was over 100 µM and the TGI [9] was over 100 µM.
With O=c1c2cc(S(=O)(=O)Nc3ccccc3Cl)ccc2ncn1NS(=O)(=O)c1ccc(Br)cc1 the TGI [2] was over 37.5 µM, the TGI [3] was over 37.5 µM and the TGI [10] was over 37.5 µM. It also gave a TGI [4] of over 37.5 µM, a TGI [5] of over 37.5 µM and a TGI [6] of over 37.5 µM. It also gave a TGI [7] of over 37.5 µM and a TGI [8] of over 37.5 µM.
Compound O=C1NC(N2CCOCC2)=N/C1=C\c1cccs1 has a TGI [2] of over 100 µM, a TGI [3] of over 100 µM and a TGI [10] of over 100 µM. It also gave a TGI [4] of over 100 µM, a TGI [5] of over 100 µM and a TGI [6] of over 100 µM. It also gave a TGI [8] of over 100 µM and a TGI [9] of over 100 µM.
For NC(=S)NNC(=O)/C(=C/c1ccc(/C=C(\NC(=O)c2ccccc2)C(=O)NNC(N)=S)cc1)NC(=O)c1ccccc1, the TGI [1] was over 100 µM, the TGI [2] was over 100 µM and the TGI [10] was over 100 µM. It also gave a TGI [4] of over 100 µM, a TGI [5] of over 100 µM and a TGI [7] of over 100 µM. It also gave a TGI [9] of over 100 µM.
COc1ccc(-c2ccc(-c3ccc(C(=N)N)nc3)s2)cc1 was tested, and the GI50 [2] was 1.64 µM, the TGI [2] was 3 µM and the GI50 [3] was 1.77 µM. For the same compound, the TGI [3] was 3.17 µM, the GI50 [10] was 1.82 µM and the TGI [10] was 3.41 µM. It also gave a GI50 [6] of 1.73 µM, a TGI [6] of 3.11 µM and a GI50 [7] of 0.524 µM. It also gave a TGI [7] of 1.82 µM, a GI50 [8] of 1.94 µM and a TGI [8] of 3.75 µM. The GI50 [9] was 1.79 µM and the TGI [9] was 3.26 µM.
CC1CC2OC(=O)C3CC(O)CC(=C23)[C@@]12C[C@@H](c1ccoc1)OC2=O (stereo not given in full) showed a TGI [10] of over 100 µM, a TGI [4] of over 100 µM and a TGI [5] of over 100 µM. It also gave a TGI [7] of over 100 µM and a TGI [9] of over 100 µM.
For COc1cc2c(cc1OC)-c1[nH]c3ccc(C#N)cc3c1CC(=O)N2, the TGI [1] was over 100 µM, the TGI [2] was over 100 µM and the TGI [3] was over 100 µM. For the same compound, the TGI [4] was over 100 µM, the TGI [5] was over 100 µM and the TGI [6] was over 100 µM. For the same compound, the TGI [7] was over 100 µM, the TGI [8] was over 100 µM and the TGI [9] was 28 µM.
With O=C1c2cc3c(cc2CC12Cc1cc4c(cc1C2=O)CCCC4)CCCC3 the TGI [1] was over 100 µM, the TGI [3] was over 100 µM and the TGI [10] was over 100 µM. The TGI [4] was over 100 µM, the TGI [5] was over 100 µM and the TGI [6] was over 100 µM. It also gave a TGI [7] of over 100 µM, a TGI [8] of over 100 µM and a TGI [9] of over 100 µM.
CC1=C(C(=O)Nc2cccc3c2C(=O)NC3=O)CC(C(=O)Nc2cccc3c2C(=O)NC3=O)=C(C)N1 showed a TGI [1] of over 100 µM, a TGI [2] of over 100 µM and a TGI [3] of over 100 µM. For the same compound, the TGI [10] was over 100 µM, the TGI [5] was over 100 µM and the TGI [6] was over 100 µM. For the same compound, the TGI [7] was over 100 µM and the TGI [9] was over 100 µM.
COc1cc(OCc2ccc3nc(-c4ccccc4)c(N)nc3c2)cc(OC)c1OC gave a TGI [1] of 73.8 µM, a TGI [2] of 71.4 µM and a TGI [3] of 77.8 µM. For the same compound, the TGI [10] was over 100 µM, the TGI [5] was 55.9 µM and the TGI [6] was 51.2 µM. It also gave a TGI [7] of 39.7 µM, a TGI [8] of 49.6 µM and a TGI [9] of 24 µM.
In the case of CCOC(=O)NC(C(F)(F)F)(C(F)(F)F)P(=O)(OC(C)C)OC(C)C, the TGI [3] was over 100 µM, the TGI [10] was over 100 µM and the TGI [4] was over 100 µM. It also gave a TGI [5] of over 100 µM, a TGI [6] of over 100 µM and a TGI [7] of over 100 µM. For the same compound, the TGI [8] was over 100 µM and the TGI [9] was over 100 µM.
NCCCCNCCCN1CC1 showed a TGI [1] of 1.84 µM, a TGI [2] of 0.382 µM and a TGI [3] of over 29.6 µM. For the same compound, the TGI [10] was 97.1 µM, the TGI [4] was over 42 µM and the TGI [5] was over 21.5 µM. The TGI [6] was over 94.6 µM, the TGI [7] was over 100 µM and the TGI [9] was 9.67 µM.
Work on CC(C)OP(=O)(OC(C)C)C(C(C)C)N(C)/C(N)=N\C1=NC(C(F)(F)F)(C(F)(F)F)N=C(C(C(F)(F)F)C(F)(F)F)O1 (stereo not given) yielded a TGI [1] of 23.5 µM, a TGI [2] of 11.2 µM and a TGI [3] of 25.6 µM. It also gave a TGI [10] of 19.5 µM, a TGI [4] of 6.98 µM and a TGI [5] of 5.77 µM. For the same compound, the TGI [6] was 3.78 µM and the TGI [7] was 9.91 µM.
CCOC(=O)c1ccc(C(=O)OCC)n1-c1cc2cc(c1)CSCc1cc(cc(-n3c(C(=O)OCC)ccc3C(=O)OCC)c1)CSC2 gave a TGI [2] of over 10 µM, a TGI [3] of over 10 µM and a TGI [10] of over 10 µM. It also gave a TGI [4] of over 10 µM, a TGI [5] of over 10 µM and a TGI [6] of over 10 µM. The TGI [7] was over 10 µM, the TGI [8] was over 10 µM and the TGI [9] was over 10 µM.
Work on Cc1nc2sc(CCl)nn2c(=O)c1Cl yielded a TGI [2] of 24.8 µM, a TGI [3] of 29.7 µM and a TGI [10] of 37.7 µM. For the same compound, the TGI [4] was 26.2 µM, the TGI [5] was 34.8 µM and the TGI [6] was 18.3 µM. The TGI [7] was 25.3 µM, the TGI [8] was 50.8 µM and the TGI [9] was 18.7 µM.
O=S(=O)([O-])[O-].[Fe+2].c1ccc(/C(=N\Nc2ccccn2)c2ccccn2)cc1 gave a TGI [1] of 24.2 µM, a TGI [2] of 10.5 µM and a TGI [10] of 16.2 µM. The TGI [4] was 22.7 µM, the TGI [5] was 5.46 µM and the TGI [7] was 8.55 µM. It also gave a TGI [9] of 4.43 µM.
O=P(O)(OCC(O)O)OCC(O)O was tested, and the TGI [1] was over 100 µM, the TGI [10] was over 100 µM and the TGI [4] was over 100 µM. For the same compound, the TGI [5] was over 100 µM, the TGI [7] was over 100 µM and the TGI [9] was over 100 µM.
CC1=C/C(=N\OCC(=O)O)CC(c2ccc(C(C)C)cc2)C1 (stereo not given) showed a TGI [2] of over 100 µM, a TGI [3] of over 100 µM and a TGI [4] of 37.6 µM. For the same compound, the TGI [5] was over 100 µM, the TGI [6] was over 100 µM and the TGI [7] was over 100 µM. The TGI [8] was 75.5 µM and the TGI [9] was 34.1 µM.
Work on C/C(CN1C(=O)c2ccccc2C1=O)=N\NS(=O)(=O)c1ccc(Br)cc1 yielded a TGI [1] of over 100 µM, a TGI [2] of over 100 µM and a TGI [10] of over 100 µM. The TGI [4] was over 100 µM, the TGI [5] was over 100 µM and the TGI [7] was over 100 µM. For the same compound, the TGI [9] was over 100 µM.
